Experimental data reported in patent publication US8933224B2, “Triazine derivatives” (Pfizer Inc., priority 2013, dated 2015).

What was measured:
[1] = molecular target: human recombinant PDE10 enzyme (PDE10A) (Homo sapiens, UniProt Q9Y233); assay: PDE10 scintillation proximity assay (SPA), inhibition of human recombinant PDE10 enzyme activity; assay type: biochemical; settings: geometric mean of 2-4 determinations unless otherwise indicated (b: ≧5 determinations; c: single determination)
Method: PDE10 activity was measured using a scintillation assay (SPA-based method) similar to that previously described by Seeger, T. F. et al., Brain Research 985 (2003) 113-126. The compounds' relative activity as PDE10 inhibitors was investigated by assaying a fixed amount of enzyme in the presence of the test compound and low substrate concentration (cAMP) such that an IC50 could be determined. […] The assay is performed in a 384-well format with 50 μL assay buffer (50 mM TRIS pH 7.5; 1.3 mM MgCl2; 0.01% Brij) containing enough PDE10 to convert ˜20% of 20 nM ^3H-cAMP, and a range of inhibitors. Reactions are incubated for 30 minutes at 25° C. The addition of 20 μL of 8 mg/ml yttrium silicate SPA beads (PerkinElmer) stops the reaction. The plates are sealed (TopSeal, PerkinElmer) and the beads are allowed to settle for 8 hrs, after which they are read on the Trilux Microbeta overnight. ^1Rat enzyme preparation:^2Human enzyme preparation:
Human PDE10A coding sequence (amino acids 21 to 797 from the sequence with accession number NP_001124162.1) was synthesized using codon optimization for insect expression and cloned into the baculovirus expression vector pFastBac (Invitrogen) engineered to include a N-terminal His6 affinity tag to aid in purification as described in Seeger, T. F. et al., Brain Research 985 (2003) 113-126. The recombinant Bacmid was isolated and used to transfect sf9 insect cells to generate a viral stock. To generate cell paste for purification, sf21 cells were infected with the virus stock and cells were harvested 72 hours after infection as described in Seeger, T. F. et al., Brain Research 985 (2003) 113-126. Insect cell paste was lysed and after centrifugation, the supernatant was chromatographed on Ni-NTA agarose (Qiagen) as described in Seeger, T. F. et al., Brain Research 985 (2003) 113-126. Ni-NTA agarose eluting fractions containing PDE10A were chromatographed on Superdex 200 (GE Healthcare Life Sciences) in 50 mM Tris HCl pH 7.5, 150 mM NaCl, 1 mM EDTA, 10% glycerol, 2 mM TCEP, 1.5 mM benzamidine, EDTA-free protease inhibitors (Roche), and 5 μM E-64.

[2] = molecular target: rat PDE10 enzyme (Rattus norvegicus (Rat), UniProt Q9QYJ6); assay: PDE10 scintillation proximity assay (SPA), inhibition of rat PDE10 enzyme activity; assay type: biochemical; settings: geometric mean of 2-4 determinations unless otherwise indicated (b: ≧5 determinations; c: single determination)
How it was run: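 SPA with fixed recombinant PDE10 (Sf21-expressed, Ni-NTA and Mono Q purified) converting ~20% of 20 nM ³H-cAMP in 50 mM TRIS pH 7.5, 1.3 mM MgCl2, 0.01% Brij, across an inhibitor range.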

rat PDE10 enzyme, sequence (Q9QYJ6 24-794): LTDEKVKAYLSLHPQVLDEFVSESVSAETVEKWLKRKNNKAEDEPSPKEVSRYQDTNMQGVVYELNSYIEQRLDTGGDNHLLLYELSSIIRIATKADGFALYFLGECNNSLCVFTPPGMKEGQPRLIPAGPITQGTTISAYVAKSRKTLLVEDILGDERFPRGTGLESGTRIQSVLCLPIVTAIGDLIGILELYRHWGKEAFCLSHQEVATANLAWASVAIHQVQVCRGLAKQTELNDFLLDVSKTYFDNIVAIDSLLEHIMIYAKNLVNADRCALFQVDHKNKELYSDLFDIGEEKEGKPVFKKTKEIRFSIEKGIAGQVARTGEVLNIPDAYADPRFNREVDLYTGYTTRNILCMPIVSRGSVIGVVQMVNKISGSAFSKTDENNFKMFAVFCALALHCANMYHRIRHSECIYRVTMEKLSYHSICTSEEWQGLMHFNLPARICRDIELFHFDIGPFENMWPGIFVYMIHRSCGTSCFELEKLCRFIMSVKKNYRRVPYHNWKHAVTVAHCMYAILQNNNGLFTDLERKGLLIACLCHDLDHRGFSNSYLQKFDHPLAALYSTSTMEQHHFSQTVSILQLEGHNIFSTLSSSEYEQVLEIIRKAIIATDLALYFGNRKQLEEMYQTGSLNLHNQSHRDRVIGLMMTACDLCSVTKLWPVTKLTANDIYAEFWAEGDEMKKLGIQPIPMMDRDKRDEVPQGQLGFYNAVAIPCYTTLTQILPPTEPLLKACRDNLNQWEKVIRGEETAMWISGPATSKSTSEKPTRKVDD

| SMILES | IC50 [1] [nM] | IC50 [2] [nM] |
| --- | --- | --- |
| Cc1nc(C)c2c(n1)CCN(c1ncnn3c(C)nc(-c4ccccc4F)c13)C2 [Example 130, 6-[5-(2-fluorophenyl)-7-methylimidazo[5,1-f][1,2,4]triazin-4-yl]-2,4-dimethyl-5,6,7,8-tetrahydropyrido[4,3-d]pyrimidine] | 2.34 | 1.65 |
| CCc1nc(C)nc2c1CN(c1ncnn3c(C)nc(-c4ccccc4F)c13)CC2 [Example 131, 4-ethyl-6-[5-(2-fluorophenyl)-7-methylimidazo[5,1-f][1,2,4]triazin-4-yl]-2-methyl-5,6,7,8-tetrahydropyrido[4,3-d]pyrimidine] | 0.573 | 0.456 |
| CCc1nc(C2CC2)nc2c1CN(c1ncnn3c(C)nc([C@@H]4CCOC4)c13)CC2 [Example 137] | 0.0777 | 0.095 |
| Cc1ccc2c(n1)CCN(c1ncnn3c(C)nc([C@@H]4CCOC4)c13)C2 [Example 139, 2-methyl-6-{7-methyl-5-[(3S)-tetrahydrofuran-3-yl]imidazo[5,1-f][1,2,4]triazin-4-yl}-5,6,7,8-tetrahydro-1,6-naphthyridine] | 0.279 | 0.27 |
| CCOc1nc(C2CC2)nc2c1CN(c1ncnn3c(C)nc([C@@H]4CCOC4)c13)CC2 [Example 148, 2-cyclopropyl-4-ethoxy-6-{7-methyl-5-[(3S)-tetrahydrofuran-3-yl]imidazo[5,1-f][1,2,4]triazin-4-yl}-5,6,7,8-tetrahydropyrido[4,3-d]pyrimidine] | 0.166 | 0.125 |
| Cc1nc(-c2ccccc2F)c2c(N3CCc4cnn(C5CC5)c4C3)ncnn12 [Example 156, 4-(1-cyclopropyl-1,4,5,7-tetrahydro-6H-pyrazolo[3,4-c]pyridin-6-yl)-5-(2-fluorophenyl)-7-methylimidazo[5,1-f][1,2,4]triazine] | 1 | 0.905 |
| Cc1nc(-c2ccccc2F)c2c(N3CCc4ccc(C(F)(F)F)nc4C3)ncnn12 [Example 159, 7-[5-(2-fluorophenyl)-7-methylimidazo[5,1-f][1,2,4]triazin-4-yl]-2-(trifluoromethyl)-5,6,7,8-tetrahydro-1,7-naphthyridine] | 21.2 | 9.7 |
| Cc1nc(-c2ccccc2F)c2c(N3CCc4cc(C5CC5)ncc4C3)ncnn12 [Example 162, 6-cyclopropyl-2-[5-(2-fluorophenyl)-7-methylimidazo[5,1-f][1,2,4]triazin-4-yl]-1,2,3,4-tetrahydro-2,7-naphthyridine] | 5.21 | 2.16 |
| Cc1cc2c(cn1)CN(c1ncnn3c(C)nc([C@@H]4CCOC4)c13)CC2 [Example 163, 6-methyl-2-{7-methyl-5-[(3S)-tetrahydrofuran-3-yl]imidazo[5,1-f][1,2,4]triazin-4-yl}-1,2,3,4-tetrahydro-2,7-naphthyridine] | 1.78 | 1.19 |
| Cc1cc2c(cn1)CN(c1ncnn3c(C)nc(-c4ccccc4F)c13)CC2 [Example 164, 2-[5-(2-fluorophenyl)-7-methylimidazo[5,1-f][1,2,4]triazin-4-yl]-6-methyl-1,2,3,4-tetrahydro-2,7-naphthyridine] | 5.92 | 3.32 |
| CCn1ncc2c1CN(c1ncnn3c(C)nc(-c4ccccc4F)c13)CC2 [Example 166, 4-(1-ethyl-1,4,5,7-tetrahydro-6H-pyrazolo[3,4-c]pyridin-6-yl)-5-(2-fluorophenyl)-7-methylimidazo[5,1-f][1,2,4]triazine] | 0.801 | 0.435 |
| Cc1nc(-c2ccccc2F)c2c(N3Cc4c(cnn4C)C(C)C3)ncnn12 (stereo not drawn) [Example 168] | 3.96 | 6.1 |
| Cc1nc(-c2ccccc2F)c2c(N3CCc4cnn(CC5CCC5)c4C3)ncnn12 [Example 175, 4-[1-(cyclobutylmethyl)-1,4,5,7-tetrahydro-6H-pyrazolo[3,4-c]pyridin-6-yl]-5-(2-fluorophenyl)-7-methylimidazo[5,1-f][1,2,4]triazine] | 1.94 | 0.878 |

Second part, the molecule after the results:

| IC50 [1] [nM] | IC50 [2] [nM] | SMILES |
| --- | --- | --- |
| 0.625 | 0.37 | CCc1nc(C)nc2c1CN(c1ncnn3c(C)nc([C@@H]4CCOC4)c13)CC2 [Example 133, 4-ethyl-2-methyl-6-{7-methyl-5-[(3S)-tetrahydrofuran-3-yl]imidazo[5,1-f][1,2,4]triazin-4-yl}-5,6,7,8-tetrahydropyrido[4,3-d]pyrimidine] |
| 4.51 | 2.44 | Cc1ncc2c(n1)CCN(c1ncnn3c(C)nc([C@@H]4CCOC4)c13)C2 [Example 134, 2-methyl-6-{7-methyl-5-[(3S)-tetrahydrofuran-3-yl]imidazo[5,1-f][1,2,4]triazin-4-yl}-5,6,7,8-tetrahydropyrido[4,3-d]pyrimidine] |
| 0.219 | 0.106 | Cc1nc([C@@H]2CCOC2)c2c(N3CCc4nc(C5CC5)n(C)c(=O)c4C3)ncnn12 [Example 143, 2-cyclopropyl-3-methyl-6-{7-methyl-5-[(3S)-tetrahydrofuran-3-yl]imidazo[5,1-f][1,2,4]triazin-4-yl}-5,6,7,8-tetrahydropyrido[4,3-d]pyrimidin-4(3H)-one] |
| 0.333 | < 0.13 | CNc1ccc2c(n1)CCN(c1ncnn3c(C)nc([C@@H]4CCOC4)c13)C2 [Example 152, N-methyl-6-{7-methyl-5-[(3S)-tetrahydrofuran-3-yl]imidazo[5,1-f][1,2,4]triazin-4-yl}-5,6,7,8-tetrahydro-1,6-naphthyridin-2-amine] |
| 0.295 | 0.196 | Cc1nc([C@@H]2CCOC2)c2c(N3CCc4ccc(C(F)(F)F)nc4C3)ncnn12 [Example 157, 7-{7-methyl-5-[(3S)-tetrahydrofuran-3-yl]imidazo[5,1-f][1,2,4]triazin-4-yl}-2-(trifluoromethyl)-5,6,7,8-tetrahydro-1,7-naphthyridine] |
| 0.468 | 0.163 | Cc1nc([C@@H]2CCOC2)c2c(N3CCc4cc(C5CC5)ncc4C3)ncnn12 [Example 161, 6-cyclopropyl-2-{7-methyl-5-[(3S)-tetrahydrofuran-3-yl]imidazo[5,1-f][1,2,4]triazin-4-yl}-1,2,3,4-tetrahydro-2,7-naphthyridine] |
| 1.02 | 0.766 | CCn1ncc2c1CN(c1ncnn3c(C)nc([C@@H]4CCOC4)c13)CC2 [Example 165, 4-(1-ethyl-1,4,5,7-tetrahydro-6H-pyrazolo[3,4-c]pyridin-6-yl)-7-methyl-5-[(3S)-tetrahydrofuran-3-yl]imidazo[5,1-f][1,2,4]triazine] |
| 4.11 | 4.47 | Cc1nc([C@@H]2CCOC2)c2c(N3Cc4c(cnn4C)C(C)C3)ncnn12 (stereo partly drawn) [Example 167, 4-(1,4-dimethyl-1,4,5,7-tetrahydro-6H-pyrazolo[3,4-c]pyridin-6-yl)-7-methyl-5-[(3S)-tetrahydrofuran-3-yl]imidazo[5,1-f][1,2,4]triazine] |
| 0.755 | 0.367 | Cc1nc([C@@H]2CCOC2)c2c(N3CCc4cnn(CC(C)C)c4C3)ncnn12 [Example 169, 7-methyl-4-[1-(2-methylpropyl)-1,4,5,7-tetrahydro-6H-pyrazolo[3,4-c]pyridin-6-yl]-5-[(3S)-tetrahydrofuran-3-yl]imidazo[5,1-f][1,2,4]triazine] |
| 2.55 | 1.94 | Cc1nc([C@@H]2CCOC2)c2c(N3CCc4cnn(CC(F)(F)F)c4C3)ncnn12 [Example 170, 7-methyl-5-[(3S)-tetrahydrofuran-3-yl]-4-[1-(2,2,2-trifluoroethyl)-1,4,5,7-tetrahydro-6H-pyrazolo[3,4-c]pyridin-6-yl]imidazo[5,1-f][1,2,4]triazine] |
| 0.345 | 0.359 | Cc1nc([C@@H]2CCOC2)c2c(N3CCc4cnn(CC5CCC5)c4C3)ncnn12 [Example 174, 4-[1-(cyclobutylmethyl)-1,4,5,7-tetrahydro-6H-pyrazolo[3,4-c]pyridin-6-yl]-7-methyl-5-[(3S)-tetrahydrofuran-3-yl]imidazo[5,1-f][1,2,4]triazine] |
